{"source": "paper PMC6911684", "about": "(Bioorganic & medicinal chemistry letters, 2019)", "key": {"GGTase II [1]": {"molecular_target": "T1, GGTase II (Homo sapiens, UniProt P53611+Q92696)", "T1 sequence (Q92696 1-567)": "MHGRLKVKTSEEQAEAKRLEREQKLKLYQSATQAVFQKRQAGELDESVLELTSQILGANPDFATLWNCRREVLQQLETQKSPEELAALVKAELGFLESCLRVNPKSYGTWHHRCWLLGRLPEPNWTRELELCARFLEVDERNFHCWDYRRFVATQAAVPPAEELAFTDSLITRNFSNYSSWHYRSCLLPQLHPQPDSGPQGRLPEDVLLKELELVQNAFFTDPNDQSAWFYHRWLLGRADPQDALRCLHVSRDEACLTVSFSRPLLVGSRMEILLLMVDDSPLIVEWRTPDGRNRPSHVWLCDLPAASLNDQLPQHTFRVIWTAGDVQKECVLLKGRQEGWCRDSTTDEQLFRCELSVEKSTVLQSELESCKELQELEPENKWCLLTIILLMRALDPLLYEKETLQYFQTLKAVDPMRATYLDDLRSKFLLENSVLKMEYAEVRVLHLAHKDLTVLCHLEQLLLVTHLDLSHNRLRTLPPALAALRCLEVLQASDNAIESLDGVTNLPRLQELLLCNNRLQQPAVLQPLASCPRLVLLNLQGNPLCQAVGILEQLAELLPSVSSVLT", "T1 sequence (P53611 1-331)": "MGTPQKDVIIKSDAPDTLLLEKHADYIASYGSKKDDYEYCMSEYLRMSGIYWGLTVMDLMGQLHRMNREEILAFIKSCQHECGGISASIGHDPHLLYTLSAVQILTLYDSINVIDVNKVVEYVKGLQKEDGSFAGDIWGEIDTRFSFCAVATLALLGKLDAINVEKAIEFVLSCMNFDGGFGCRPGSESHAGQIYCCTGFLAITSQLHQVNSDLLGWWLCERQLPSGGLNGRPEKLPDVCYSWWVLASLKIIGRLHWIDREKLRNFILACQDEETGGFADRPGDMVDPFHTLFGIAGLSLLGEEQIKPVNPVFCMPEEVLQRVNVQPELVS", "settings": "cited from earlier work"}, "myeloma cells": {"tested_on": "myeloma cells", "settings": "cited from earlier work"}, "GGTase I": {"molecular_target": "GGTase I (Homo sapiens, UniProt P49354+P53609)", "experiment": "GGTase I in vitro enzyme assay", "assay_type": "biochemical"}, "RPMI-8226 cells [2]": {"tested_on": "RPMI-8226 cells", "experiment": "Cellular protein prenylation assays", "assay_type": "cell-based, human"}, "FTase": {"molecular_target": "FTase (Homo sapiens, UniProt P49354+P49356)", "experiment": "FTase in vitro enzyme assay", "assay_type": "biochemical"}, "GGTase II [3]": {"molecular_target": "T1, GGTase II", "experiment": "GGTase II in vitro enzyme assay", "assay_type": "biochemical"}, "FDPS": {"molecular_target": "T2, FDPS (Homo sapiens, UniProt P14324)", "T2 sequence (P14324 1-419)": "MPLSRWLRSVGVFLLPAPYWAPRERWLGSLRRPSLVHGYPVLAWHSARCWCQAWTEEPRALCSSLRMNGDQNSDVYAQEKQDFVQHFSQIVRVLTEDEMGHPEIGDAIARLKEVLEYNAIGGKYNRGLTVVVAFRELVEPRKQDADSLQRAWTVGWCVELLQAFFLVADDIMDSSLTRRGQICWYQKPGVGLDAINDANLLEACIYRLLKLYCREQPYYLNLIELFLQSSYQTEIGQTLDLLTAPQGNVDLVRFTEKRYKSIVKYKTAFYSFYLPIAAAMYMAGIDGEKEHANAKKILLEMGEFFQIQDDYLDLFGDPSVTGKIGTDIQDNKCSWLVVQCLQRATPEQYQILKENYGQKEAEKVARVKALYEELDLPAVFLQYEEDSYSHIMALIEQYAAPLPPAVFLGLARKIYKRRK", "experiment": "FDPS in vitro enzyme assay", "assay_type": "biochemical", "settings": "ratio of GGDPS and FDPS IC50"}, "RPMI-8226 cells [4]": {"tested_on": "RPMI-8226 cells", "settings": "HMG-CoA reductase inhibitor, 10 μM in Figure 2; cited from earlier work"}, "[5]": {"settings": "RPMI-8226 cells, 48 hours, immunoblot"}}, "note": "pIC50: −log10 of the molar value.", "data": [{"molecule": "O=C(O)C(O)(Cc1cnc2ccccn12)P(=O)(O)O", "note": "(single isomer, unassigned; (+)) [(+)-enantiomer of 3-IPEHPC]", "values": [{"measurement": "Activity relative to the (−)-enantiomer", "setting": "GGTase II [1]; more active than (−)-enantiomer", "value": "~ 60 fold"}]}, {"molecule": "O=C(O)C(O)(Cc1cnc2ccccn12)P(=O)(O)O", "note": "(centres unmarked) [Compound 3-IPEHPC]", "values": [{"measurement": "Potency as GGTase II inhibitor relative to 3-PEHPC", "setting": "GGTase II [1]; more potent than 3-PEHPC", "value": 25, "unit": "fold"}]}, {"molecule": "O=C(O)C(O)(Cc1cccnc1)P(=O)(O)O", "note": "(centres unmarked) [Compound 3-PEHPC]", "values": [{"measurement": "Concentration required to yield cellular effects", "setting": "myeloma cells", "value": "> 5", "unit": "mM"}]}, {"molecule": "O=C(O)C(Cn1cnc2ccccc21)P(=O)(O)O", "note": "(centres unmarked) [Compound 13]", "values": [{"measurement": "pIC50", "setting": "GGTase I", "value": "< 3.00"}, {"measurement": "Intracellular light chain levels", "setting": "RPMI-8226 cells [2]; RPMI-8226 cells, 48 hours, ELISA", "value": "increase"}, {"measurement": "Membrane-bound Rab6 levels", "setting": "RPMI-8226 cells [2]; RPMI-8226 cells, 48 hours, detergent fraction, immunoblot", "value": "decrease"}, {"measurement": "Disruption of H-Ras prenylation (representative farnesylated protein)", "setting": "RPMI-8226 cells [2]; [5]", "value": "did not cause disruption"}, {"measurement": "Disruption of Rap1a prenylation (representative substrate for GGTase I)", "setting": "RPMI-8226 cells [2]; [5]", "value": "did not cause disruption"}]}, {"molecule": "CC(Cn1cnc2ccccc21)(C(=O)O)P(=O)(O)O", "note": "(centres unmarked) [Compound 14]", "values": [{"measurement": "pIC50", "setting": "GGTase I", "value": "< 3.00"}, {"measurement": "pIC50", "setting": "FTase", "value": "< 3.00"}]}, {"molecule": "O=C(O)C(Cn1cnc2cc(F)c(F)cc21)P(=O)(O)O", "note": "(centres unmarked) [Compound 15]", "values": [{"measurement": "pIC50", "setting": "GGTase II [3]", "value": "< 3.00"}]}, {"molecule": "Cc1cc2ncn(CC(C(=O)O)P(=O)(O)O)c2cc1C", "note": "(centres unmarked) [Compound 16]", "values": [{"measurement": "pIC50", "setting": "GGTase II [3]", "value": "< 3.00"}, {"measurement": "pIC50", "setting": "GGTase I", "value": "< 3.00"}, {"measurement": "pIC50", "setting": "FTase", "value": "< 3.00"}]}, {"molecule": "O=P(O)(O)C(Cn1cnc2ccccc21)P(=O)(O)O", "note": "[Compound 17]", "values": [{"measurement": "pIC50", "setting": "GGTase II [3]", "value": "< 3.00"}, {"measurement": "pIC50", "setting": "GGTase I", "value": "< 3.00"}, {"measurement": "Impairment of protein prenylation in cells", "setting": "RPMI-8226 cells [2]; RPMI-8226 cells, 48 hours", "value": "globally disrupts protein prenylation"}, {"measurement": "Impairment of protein prenylation in combination with lovastatin", "setting": "RPMI-8226 cells [2]; co-incubation with lovastatin 0.5 μM, RPMI-8226 cells, 48 hours", "value": "enhanced the impairment of protein prenylation"}]}, {"molecule": "CC(Cn1cnc2ccccc21)(P(=O)(O)O)P(=O)(O)O", "note": "[Compound 18]", "values": [{"measurement": "pIC50", "setting": "GGTase II [3]", "value": "< 3.00"}, {"measurement": "pIC50", "setting": "GGTase I", "value": "< 3.00"}, {"measurement": "pIC50", "setting": "FTase", "value": "< 3.00"}, {"measurement": "Selectivity for FDPS relative to GGDPS", "setting": "FDPS", "value": ">100"}, {"measurement": "Impairment of protein prenylation in cells", "setting": "RPMI-8226 cells [2]; RPMI-8226 cells, 48 hours", "value": "no detectable impairment of protein prenylation"}]}, {"molecule": "O=P(O)(O)C(Cn1cnc2cc(F)c(F)cc21)P(=O)(O)O", "note": "[Compound 19]", "values": [{"measurement": "Concentration for cellular activity relative to parent compound 17", "setting": "RPMI-8226 cells [2]; higher concentration than compound 17", "value": 20, "unit": "fold"}]}, {"molecule": "Cc1cc2ncn(CC(P(=O)(O)O)P(=O)(O)O)c2cc1C", "note": "[Compound 20]", "values": [{"measurement": "pIC50", "setting": "GGTase I", "value": "< 3.00"}, {"measurement": "pIC50", "setting": "FTase", "value": "< 3.00"}, {"measurement": "Impairment of protein prenylation in cells", "setting": "RPMI-8226 cells [2]; RPMI-8226 cells, 48 hours", "value": "no detectable impairment of protein prenylation"}]}, {"molecule": "CC[C@H](C)C(=O)O[C@H]1C[C@@H](C)C=C2C=C[C@H](C)[C@H](CC[C@@H]3C[C@@H](O)CC(=O)O3)[C@H]21", "note": "[Lovastatin, reference compound]", "values": [{"measurement": "Impairment of protein prenylation in cells", "setting": "RPMI-8226 cells [2]; lovastatin alone at 0.5 μM, RPMI-8226 cells, 48 hours", "value": "only minimally impairs protein prenylation"}, {"measurement": "Disruption of prenylation (positive control)", "setting": "RPMI-8226 cells [4]", "value": "disrupts all prenylation"}]}]}
